Results taken from patent US9630922B2, “3-spiro-7-hydroxamic acid tetralins as HDAC inhibitors” (Forma Therapeutics, Inc., priority 2015, dated 2017).
pIC50: −log10 of the molar value.

Target: T1, HDAC6 (Homo sapiens, UniProt Q9UBN7)
T1 construct: Full length human recombinant HDAC6 protein was expressed in baculoviral system; made in house; host or cells: baculoviral system
T1 sequence (Q9UBN7 1-1215): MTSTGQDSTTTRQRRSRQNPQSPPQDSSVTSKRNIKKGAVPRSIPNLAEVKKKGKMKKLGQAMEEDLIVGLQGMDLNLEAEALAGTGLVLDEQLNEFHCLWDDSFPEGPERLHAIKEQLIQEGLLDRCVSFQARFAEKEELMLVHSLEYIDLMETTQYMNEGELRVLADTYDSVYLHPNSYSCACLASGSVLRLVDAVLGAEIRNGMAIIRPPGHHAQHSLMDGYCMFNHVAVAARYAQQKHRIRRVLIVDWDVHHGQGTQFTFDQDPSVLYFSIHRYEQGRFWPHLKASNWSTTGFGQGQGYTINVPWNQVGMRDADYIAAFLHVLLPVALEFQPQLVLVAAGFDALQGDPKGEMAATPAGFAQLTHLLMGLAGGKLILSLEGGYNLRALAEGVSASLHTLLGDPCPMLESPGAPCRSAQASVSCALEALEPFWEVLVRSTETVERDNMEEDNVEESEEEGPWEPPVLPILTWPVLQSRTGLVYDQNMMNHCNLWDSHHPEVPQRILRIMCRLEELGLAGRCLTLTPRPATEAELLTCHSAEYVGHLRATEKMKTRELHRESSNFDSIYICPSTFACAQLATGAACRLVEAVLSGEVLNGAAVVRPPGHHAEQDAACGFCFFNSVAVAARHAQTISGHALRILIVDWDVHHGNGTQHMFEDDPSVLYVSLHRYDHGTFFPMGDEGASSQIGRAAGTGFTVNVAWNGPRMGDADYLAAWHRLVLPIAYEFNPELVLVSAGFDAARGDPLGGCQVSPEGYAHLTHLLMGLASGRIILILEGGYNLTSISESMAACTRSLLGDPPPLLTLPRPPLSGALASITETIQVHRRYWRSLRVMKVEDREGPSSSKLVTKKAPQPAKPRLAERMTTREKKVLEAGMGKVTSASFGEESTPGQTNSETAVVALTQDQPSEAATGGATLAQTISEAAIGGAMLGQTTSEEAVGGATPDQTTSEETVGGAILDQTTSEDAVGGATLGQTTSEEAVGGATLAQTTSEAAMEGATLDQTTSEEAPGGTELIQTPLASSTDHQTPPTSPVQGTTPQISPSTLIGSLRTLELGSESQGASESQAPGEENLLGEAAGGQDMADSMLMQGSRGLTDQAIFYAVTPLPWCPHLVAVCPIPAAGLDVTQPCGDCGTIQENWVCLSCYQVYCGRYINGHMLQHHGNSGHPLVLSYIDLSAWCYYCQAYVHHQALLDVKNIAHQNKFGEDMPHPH
Test: In vitro Histone Deacetylase Assay (enzymatic HDAC6 electrophoretic mobility shift assay)
Type: biochemical
Conditions: full length human recombinant HDAC6, 1 nM enzyme, 2 μM peptide substrate RHKK(Ac)-NH2, 25° C.; read-out: HDAC6 activity range
Experimental: The enzymatic HDAC6 assay was performed using electrophoretic mobility shift assay. Full length human recombinant HDAC6 protein was expressed in baculoviral system and purified by affinity chromatography. The enzymatic reactions were assembled in 384 well plates in a total volume of 25 μL in a reaction buffer composing: 100 mM HEPES, pH7.5, 25 mM KCl, 0.1% bovine serum albumin, 0.01% Triton X-100, 1% DMSO (from compounds) 2 μM of the fluorescently labeled peptide substrate and enzyme. The enzyme was added at a final concentration of 1 nM. The peptide substrate RHKK(Ac)—NH2 was used. The compounds were tested at 12 concentrations spaced by 3× dilution intervals. Negative control samples (0%-inhibition in the absence of inhibitor) and positive control samples (100%-inhibition) were assembled in replicates of four in each assay plate. The reactions were incubated at 25° C. and quenched by the addition of 45 μL of termination buffer (100 mM HEPES, pH 7.5, 0.01% Triton X-100, 0.05% SDS).
The terminated assay plates were analyzed on LabChip® 3000 microfluidic electrophoresis instrument (Perkin Elmer/Caliper Life Sciences). The fluorescence intensity of the electrophoretically separated de-acetylated product and substrate peptide was measured. Activity in each sample was determined as the product to sum ratio (PSR): P/(S+P), where P is the peak height of the product peptide and S is the peak height of the substrate peptide. Percent inhibition (Pinh) is determined using the following equation:
Pinh=(PSR0%−PSRinh)/(PSR0%−PSR100%)*100, where PSRinh is the product sum ratio in the presence of inhibitor, PSR0% is the average product sum ration in the absence of inhibitor and PSR100% is the average product sum ratio in 100%-inhibition control samples. The IC50 values of inhibitors were determined by fitting the %-inhibition curves with 4 parameter dose-response model using XLfit 4 software.
As set forth in Table-31, below, IC50 values are defined as follows: IC50≦0.1 μM (+++); IC50>0.1 μM and ≦0.5 μM (++); IC50>0.5 μM (+).

Row | pIC50 | Compound
1 | ≥ 7.00 | O=C(NO)c1ccc2c(c1)CCC1(CC(=O)N(C3CC3)C1)C2 (single isomer, unassigned) [Compound I-209]
2 | ≥ 7.00 | O=C(NO)c1ccc2c(c1)CCC1(CC(=O)N(CC3CCC3)C1)C2 (single isomer, unassigned) [Compound I-210]
3 | ≥ 7.00 | CCN1CC2(CCc3cc(C(=O)NO)ccc3C2)CC1=O (single isomer, unassigned) [Compound I-211]
4 | ≥ 7.00 | CC(C)CN1CC2(CCc3cc(C(=O)NO)ccc3C2)CC1=O (single isomer, unassigned) [Compound I-212]
5 | ≥ 7.00 | CC(C)N1CC2(CCc3cc(C(=O)NO)ccc3C2)CC1=O (single isomer, unassigned) [Compound I-213]
6 | ≥ 7.00 | O=C(NO)c1ccc2c(c1)CCC1(CC(=O)N(C3CC3)C1)C2 (single isomer, unassigned) [Compound I-214]
7 | ≥ 7.00 | O=C(NO)c1ccc2c(c1)CCC1(CC(=O)N(CC3COC3)C1)C2 (single isomer, unassigned) [Compound I-215]
8 | ≥ 7.00 | O=C(NO)c1ccc2c(c1)CCC1(CC(=O)N(Cc3ccccc3)C1)C2 (single isomer, unassigned) [Compound I-216]
9 | 6.30 to 7.00 | O=C(NO)c1ccc2c(c1)CCC1(CC(=O)N(CC3COC3)C1)C2 (single isomer, unassigned) [Compound I-217]
10 | ≥ 7.00 | O=C(NO)c1ccc2c(c1)CCC1(CC(=O)N(Cc3ccccc3)C1)C2 (single isomer, unassigned) [Compound I-218]
11 | ≥ 7.00 | COCCCN1CC2(CCc3cc(C(=O)NO)ccc3C2)CC1=O (single isomer, unassigned) [Compound I-219]
12 | ≥ 7.00 | O=C(NO)c1ccc2c(c1)CCC1(CC(=O)N(CC(F)(F)F)C1)C2 (single isomer, unassigned) [Compound I-220]
13 | ≥ 7.00 | O=C(NO)c1ccc2c(c1)CCC1(CC(=O)N(c3cccnc3)C1)C2 (single isomer, unassigned) [Compound I-221]
14 | ≥ 7.00 | COCCCN1CC2(CCc3cc(C(=O)NO)ccc3C2)CC1=O (single isomer, unassigned) [Compound I-222]
15 | ≥ 7.00 | O=C(NO)c1ccc2c(c1)CCC1(CC(=O)N(CC(F)(F)F)C1)C2 (single isomer, unassigned) [Compound I-223]

Continued, compound first:

Row | Compound | pIC50
16 | O=C(NO)c1ccc2c(c1)CC[C@]1(CCN(C3CCC3)C1=O)C2 (single isomer, unassigned) [Compound I-171] | ≥ 7.00
17 | O=C(NO)c1ccc2c(c1)CC[C@@]1(CCN(C3CCC3)C1=O)C2 (single isomer, unassigned) [Compound I-172] | ≥ 7.00
18 | CN1CCC[C@@]2(CCc3cc(C(=O)NO)ccc3C2)C1=O (single isomer, unassigned) [Compound I-179] | ≥ 7.00
19 | CN1CCC[C@]2(CCc3cc(C(=O)NO)ccc3C2)C1=O (single isomer, unassigned) [Compound I-180] | ≥ 7.00
20 | O=C(NO)c1ccc2c(c1)CC[C@@]1(CCCN(c3ccccc3)C1=O)C2 (single isomer, unassigned) [Compound I-181] | ≥ 7.00
21 | O=C(NO)c1ccc2c(c1)CC[C@]1(CCCN(c3ccccc3)C1=O)C2 (single isomer, unassigned) [Compound I-182] | ≥ 7.00
22 | CCN1CCCC2(CCc3cc(C(=O)NO)ccc3C2)C1=O (single isomer, unassigned) [Compound I-184] | ≥ 7.00
23 | O=C(NO)c1ccc2c(c1)CC[C@@]1(CCCN(CC3CCC3)C1=O)C2 (single isomer, unassigned) [Compound I-185] | ≥ 7.00
24 | O=C(NO)c1ccc2c(c1)CCC1(CCCN(CC3CCC3)C1=O)C2 (single isomer, unassigned) [Compound I-186] | ≥ 7.00
25 | COCCCN1CCCC2(CCc3cc(C(=O)NO)ccc3C2)C1=O (single isomer, unassigned) [Compound I-187] | ≥ 7.00
26 | COCCCN1CCCC2(CCc3cc(C(=O)NO)ccc3C2)C1=O (single isomer, unassigned) [Compound I-188] | ≥ 7.00
27 | CC(C)CN1CCCC2(CCc3cc(C(=O)NO)ccc3C2)C1=O (single isomer, unassigned) [Compound I-189] | ≥ 7.00
28 | CC(C)CN1CCCC2(CCc3cc(C(=O)NO)ccc3C2)C1=O (single isomer, unassigned) [Compound I-190] | ≥ 7.00
29 | CC(C)N1CCCC2(CCc3cc(C(=O)NO)ccc3C2)C1=O (single isomer, unassigned) [Compound I-191] | ≥ 7.00
30 | CC(C)N1CCCC2(CCc3cc(C(=O)NO)ccc3C2)C1=O (single isomer, unassigned) [Compound I-192] | ≥ 7.00
31 | O=C(NO)c1ccc2c(c1)CC[C@@]1(CCCN(C3CC3)C1=O)C2 (single isomer, unassigned) [Compound I-193] | ≥ 7.00
32 | CCN1CCCC2(CCc3cc(C(=O)NO)ccc3C2)C1=O (single isomer, unassigned) [Compound I-194] | ≥ 7.00
33 | O=C(NO)c1ccc2c(c1)CCC1(CCCN(CC3COC3)C1=O)C2 (single isomer, unassigned) [Compound I-195] | ≥ 7.00
34 | O=C(NO)c1ccc2c(c1)CCC1(CCCN(CC3COC3)C1=O)C2 (single isomer, unassigned) [Compound I-196] | ≥ 7.00
35 | O=C(NO)c1ccc2c(c1)CC[C@@]1(CCCN(C3CCC3)C1=O)C2 (single isomer, unassigned) [Compound I-197] | ≥ 7.00
36 | O=C(NO)c1ccc2c(c1)CC[C@]1(CCCN(C3CCC3)C1=O)C2 (single isomer, unassigned) [Compound I-198] | ≥ 7.00
37 | CN1C[C@@]2(CCc3cc(C(=O)NO)ccc3C2)CC1=O (single isomer, unassigned) [Compound I-201] | ≥ 7.00
38 | CN1CC2(CCc3cc(C(=O)NO)ccc3C2)CC1=O (single isomer, unassigned) [Compound I-202] | ≥ 7.00
39 | O=C(NO)c1ccc2c(c1)CC[C@]1(CC(=O)N(c3ccccc3)C1)C2 (single isomer, unassigned) [Compound I-203] | ≥ 7.00
40 | O=C(NO)c1ccc2c(c1)CCC1(CC(=O)N(c3ccccc3)C1)C2 (single isomer, unassigned) [Compound I-204] | ≥ 7.00
41 | O=C(NO)c1ccc2c(c1)CC[C@]1(CC(=O)N(CC3CCC3)C1)C2 (single isomer, unassigned) [Compound I-205] | ≥ 7.00
42 | CCN1CC2(CCc3cc(C(=O)NO)ccc3C2)CC1=O (single isomer, unassigned) [Compound I-206] | ≥ 7.00
43 | CC(C)CN1CC2(CCc3cc(C(=O)NO)ccc3C2)CC1=O (single isomer, unassigned) [Compound I-207] | ≥ 7.00
44 | CC(C)N1CC2(CCc3cc(C(=O)NO)ccc3C2)CC1=O (single isomer, unassigned) [Compound I-208] | ≥ 7.00
